Tests used:
CYP1A1 = CYP1A1 (Homo sapiens (Human), UniProt P04798); assay: CYP1A1 inhibition assay (Promega P450-Glo, Cypex bactosomes); type: biochemical; conditions: direct CYP1A1 inhibition, Luciferin-CEE 30 μM, NADPH, 37° C., arithmetic mean of pIC50
Experimental: In Vitro Assay 22: […] Inhibition Assay
The direct CYP1A1 inhibitory activity of test compounds was also assessed using the Promega P450-Glo™ assay system. Seven concentrations of test compound were added to a ½ area white 96 well plate. Cypex […]. bactosomes ([final] 0.5 pmol) and CYPA substrate Luciferin-CEE ([final] 30 μM) were prepared in 0.1M potassium phosphate buffer and incubated with test compounds at 37° C. for 5 minutes. 0.2m NADPH was then added to the plates and incubated at 37° C., for 10 minutes. The reaction was stopped by adding luciferin detection reagent and luminescence was read after 20 minutes.

AhR = AhR (Homo sapiens (Human), UniProt P35869); assay: AhR antagonism in U937 cells (Promega P450-Glo assay); type: cell-based; conditions: inhibition of agonist (KYNA) response, CYP1A1 activity readout (Luciferin-CEE), 24 hrs, arithmetic mean of pIC50
Chain of AhR (P35869 11-848): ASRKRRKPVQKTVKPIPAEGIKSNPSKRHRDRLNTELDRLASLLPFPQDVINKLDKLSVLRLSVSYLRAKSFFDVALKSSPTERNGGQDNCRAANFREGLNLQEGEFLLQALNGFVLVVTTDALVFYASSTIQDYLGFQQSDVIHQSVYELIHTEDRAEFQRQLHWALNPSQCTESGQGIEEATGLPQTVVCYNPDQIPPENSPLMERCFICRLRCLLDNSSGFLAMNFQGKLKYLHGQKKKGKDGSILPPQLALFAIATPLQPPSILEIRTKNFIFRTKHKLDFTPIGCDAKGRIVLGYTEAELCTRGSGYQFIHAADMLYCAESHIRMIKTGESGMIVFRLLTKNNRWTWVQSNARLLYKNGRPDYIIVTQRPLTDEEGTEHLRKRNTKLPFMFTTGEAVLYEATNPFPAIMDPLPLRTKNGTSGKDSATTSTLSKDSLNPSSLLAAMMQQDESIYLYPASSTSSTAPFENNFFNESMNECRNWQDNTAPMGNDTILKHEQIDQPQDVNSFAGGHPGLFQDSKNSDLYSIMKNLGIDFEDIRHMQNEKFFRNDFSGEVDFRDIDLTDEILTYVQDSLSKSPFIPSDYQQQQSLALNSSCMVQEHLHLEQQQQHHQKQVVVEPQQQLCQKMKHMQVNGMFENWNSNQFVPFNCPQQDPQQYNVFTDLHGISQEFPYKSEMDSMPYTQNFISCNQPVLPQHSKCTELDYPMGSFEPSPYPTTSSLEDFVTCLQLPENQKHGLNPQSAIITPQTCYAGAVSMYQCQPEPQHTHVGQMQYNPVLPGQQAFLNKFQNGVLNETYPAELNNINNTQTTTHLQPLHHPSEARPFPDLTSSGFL
Experimental: Examples were tested in selected biological assays two or more times. Data are reported as the arithmetic mean of the pIC50 (−log10IC50) values, where IC50 is defined as the concentration of compound producing a 50% inhibition of the agonist (KYNA) response.
In Vitro Assay 1: AhR Antagonism in U937 Cells (Promega P450-Glo™ Assay)
AhR antagonism was assessed in U937 cells (myeloid lineage cell line derived from a human histiocytic lymphoma).). Ligand binds the AhR in the cytoplasm, and the AhR-ligand complex translocates to the nucleus and forms a heterodimer with AhR nuclear translocator (Arnt). This complex binds the xenobiotic response element (XRE) in the 5′ upstream region of the CYP1A1 promoter, enhancing CYP1A1 expression. CYP1A1 activity is subsequently determined by assessing the conversion of Luciferin-CEE to luciferin, which in turn reacts with luciferase to produce light. The amount of light produced is directly proportional to cytochrome P450 activity. U937 cells in Ultraculture serum free media (Lonza) were plated at 100,000 cells per well in a round bottom 96 well tissue culture plate. Seven concentrations of test compound (final [DMSO] 1%) were added and incubated for 10 minutes before the addition of […] KYNA. The plates were then placed in an incubator at 37° C., >85% humidity, 5% CO2 for 24 hrs. After aspiration of the supernatant the CYP1A1 substrate Luciferin-CEE ([Final] 83 μM) was added and incubated for 3 hrs before the reaction was stopped by adding luciferin detection reagent and luminescence was read after 20 minutes.

Chain of CYP1A1 (P04798 whole entry): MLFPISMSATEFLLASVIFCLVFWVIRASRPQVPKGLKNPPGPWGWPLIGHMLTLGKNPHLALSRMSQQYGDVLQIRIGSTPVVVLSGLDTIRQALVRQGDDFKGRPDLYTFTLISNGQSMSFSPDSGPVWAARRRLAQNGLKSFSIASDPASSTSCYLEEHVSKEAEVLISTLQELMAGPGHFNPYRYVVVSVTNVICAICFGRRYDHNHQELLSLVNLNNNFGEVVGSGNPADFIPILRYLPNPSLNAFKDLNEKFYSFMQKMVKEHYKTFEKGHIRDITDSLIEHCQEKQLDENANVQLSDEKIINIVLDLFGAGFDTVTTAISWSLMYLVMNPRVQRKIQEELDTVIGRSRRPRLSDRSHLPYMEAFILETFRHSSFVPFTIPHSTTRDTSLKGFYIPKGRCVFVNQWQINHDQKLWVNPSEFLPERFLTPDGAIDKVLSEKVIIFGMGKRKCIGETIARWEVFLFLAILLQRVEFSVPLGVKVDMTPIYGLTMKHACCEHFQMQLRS

Compound | cyp1A1 pIC50 (CYP1A1) | IC50 (AhR) [µM] | IC50 (CYP1A1) [µM]
CC(=O)N1CCc2c(nc(-c3cncc(F)c3)nc2NCCc2c[nH]c3ccccc23)C1 [Example 1, 1-(4-((2-(1H-indol-3-yl)ethyl)amino)-2-(5-fluoropyridin-3-yl)-5,8-dihydropyrido [3,4-d]pyrimidin-7(6H)-yl)ethan-1-one] | 6.00 | 0.00158 | 
CS(=O)(=O)N1CCc2c(nc(-c3cncc(F)c3)nc2NCCc2c[nH]c3ccccc23)C1 [Example 2, N-(2-(1H-indol-3-yl)ethyl)-2-(5-fluoropyridin-3-yl)-7-(methylsulfonyl)-5,6,7,8-tetrahydropyrido [3,4-d]pyrimidin-4-amine] | 6.20 | 0.00126 | 
N#CCN1CCc2c(nc(-c3cncc(F)c3)nc2NCCc2c[nH]c3ccccc23)C1 [Example 4, 2-(4-((2-(1H-indol-3-yl)ethyl)amino)-2-(5-fluoropyridin-3-yl)-5,8-dihydropyrido[3,4-d]pyrimidin-7(6H)-yl)acetonitrile] |  | 0.00631 | 0.794
CC(C)N1CCc2c(nc(-c3cncc(F)c3)nc2NCCc2c[nH]c3ccccc23)C1 [Example 5, N-(2-(1H-indol-3-yl)ethyl)-2-(5-fluoropyridin-3-yl)-7-isopropyl-5,6,7,8-tetrahydropyrido[3,4-d]pyrimidin-4-amine] | 6.40 | 0.01 | 
CN1CCc2c(nc(-c3cncc(F)c3)nc2NCCc2c[nH]c3ccccc23)C1 [Example 6, N-(2-(1H-indol-3-yl)ethyl)-2-(5-fluoropyridin-3-yl)-7-methyl-5,6,7,8-tetrahydropyrido[3,4-d]pyrimidin-4-amine] | 6.50 | 0.00501 | 
c1cncc(-c2nc3c(c(NCCc4c[nH]c5ccccc45)n2)CNCC3)c1 [Example 7, N-(2-(1H-indol-3-yl)ethyl)-2-(pyridin-3-yl)-5,6,7,8-tetrahydropyrido [4,3-d]pyrimidin-4-amine] | 6.70 | 0.01 | 
Fc1cncc(-c2nc3c(c(NCCc4c[nH]c5ccccc45)n2)CCNC3)c1 [Example 8, N-(2-(1H-indol-3-yl)ethyl)-2-(5-fluoropyridin-3-yl)-5,6,7,8-tetrahydropyrido[3,4-d]pyrimidin-4-amine] | 7.00 | 0.0158 | 
c1cncc(-c2nc3c(c(NCCc4c[nH]c5ccccc45)n2)CCNC3)c1 [Example 9, N-(2-(1H-indol-3-yl)ethyl)-2-(pyridin-3-yl)-5,6,7,8-tetrahydro pyrido[3,4-d]pyrimidin-4-amine] | 6.60 | 0.02 | 
c1cncc(-c2nc3c(c(NCCc4c[nH]c5ccccc45)n2)CNC3)c1 [Example 10, N-(2-(1H-indol-3-yl)ethyl)-2-(pyridin-3-yl)-6,7-dihydro-5H-pyrrolo[3,4-d]pyrimidin-4-amine] | 6.80 | 0.0126 | 
Fc1cncc(-c2nc3c(c(OCCc4c[nH]c5ccccc45)n2)CCNC3)c1 [Example 11, 4-(2-(1H-indol-3-yl)ethoxy)-2-(5-fluoropyridin-3-yl)-5,6,7,8-tetrahydropyrido[3,4-d]pyrimidine] | 6.40 | 0.00316 | 
CN(C)S(=O)(=O)N1CCc2c(nc(-c3cncc(F)c3)nc2NCCc2c[nH]c3ccccc23)C1 [Example 12, 4-((2-(1H-indol-3-yl)ethyl)amino)-2-(5-fluoropyridin-3-yl)-N,N-dimethyl-5,8-dihydropyrido[3,4-d]pyrimidine-7(6H)-sulfonamide] | 6.10 | 0.001 | 
CN(C)C(=O)N1CCc2c(nc(-c3cncc(F)c3)nc2NCCc2c[nH]c3ccccc23)C1 [Example 13, 4-((2-(1H-indol-3-yl)ethyl)amino)-2-(5-fluoropyridin-3-yl)-N,N-dimethyl-5,8-dihydropyrido[3,4-d]pyrimidine-7(6H)-carboxamide] | 5.70 | 0.00316 | 
CNC(=O)N1CCc2c(nc(-c3cncc(F)c3)nc2NCCc2c[nH]c3ccccc23)C1 [Example 14, 4-((2-(1H-indol-3-yl)ethyl)amino)-2-(5-fluoropyridin-3-yl)-N-methyl-5,8-dihydropyrido[3,4-d]pyrimidine-7(6H)-carboxamide] | 6.10 | 0.00126 | 
Cn1nccc1C(=O)N1CCc2c(nc(-c3cncc(F)c3)nc2NCCc2c[nH]c3ccccc23)C1 [Example 15, (4-((2-(1H-indol-3-yl)ethyl)amino)-2-(5-fluoropyridin-3-yl)-5,8-dihydropyrido[3,4-d]pyrimidin-7(6H)-yl)(1-methyl-1H-pyrazol-5-yl)methanone] | 6.00 | 0.002 | 
NCC(=O)N1CCc2c(nc(-c3cncc(F)c3)nc2NCCc2c[nH]c3ccccc23)C1 [Example 16, 1-(4-((2-(1H-indol-3-yl)ethyl)amino)-2-(5-fluoropyridin-3-yl)-5,8-dihydropyrido[3,4-d]pyrimidin-7(6H)-yl)-2-aminoethan-1-one] |  | 0.00631 | 0.1
Fc1cncc(-c2nc3c(c(NCCc4c[nH]c5ccccc45)n2)CCNCC3)c1 [Example 17a, N-(2-(1H-indol-3-yl)ethyl)-2-(5-fluoropyridin-3-yl)-6,7,8,9-tetrahydro-5H-pyrimido[4,5-d]azepin-4-amine] | 6.20 | 0.0251 | 
CCN1CCc2nc(-c3cncc(F)c3)nc(NCCc3c[nH]c4ccccc34)c2CC1 [Example 17b, N-(2-(1H-indol-3-yl)ethyl)-7-ethyl-2-(5-fluoropyridin-3-yl)-6,7,8,9-tetrahydro-5H-pyrimido[4,5-d]azepin-4-amine] | 6.10 | 0.0158 | 
CC1(C)c2nc(-c3cncc(F)c3)nc(NCCc3c[nH]c4ccccc34)c2CCN1Cc1ccccc1 [Example 18a, N-(2-(1H-indol-3-yl)ethyl)-7-benzyl-2-(5-fluoropyridin-3-yl)-8,8-dimethyl-5,6,7,8-tetrahydropyrido[3,4-d]pyrimidin-4-amine] | 6.20 | 0.00501 | 
CC1(C)NCCc2c(NCCc3c[nH]c4ccccc34)nc(-c3cncc(F)c3)nc21 [Example 18b, N-(2-(1H-indol-3-yl)ethyl)-2-(5-fluoropyridin-3-yl)-8,8-dimethyl-5,6,7,8-tetrahydropyrido[3,4-d]pyrimidin-4-amine] | 5.90 | 0.02 | 
Fc1cncc(-c2nc3c(c(NCCc4nc5ccccc5[nH]4)n2)CCNC3)c1 [Example 19, N-(2-(1H-benzo[d]imidazol-2-yl)ethyl)-2-(5-fluoropyridin-3-yl)-5,6,7,8-tetrahydropyrido[3,4-d]pyrimidin-4-amine] | 5.10 | 3.16 | 
Cc1cncc(-c2nc3c(c(NCCc4c[nH]c5ccccc45)n2)CCNC3)c1 [Example 20, N-(2-(1H-indol-3-yl)ethyl)-2-(5-methylpyridin-3-yl)-5,6,7,8-tetrahydropyrido[3,4-d]pyrimidin-4-amine] | 6.40 | 0.0251 | 
Fc1cncc(-c2nc3c(c(NCCc4c[nH]c5ccccc45)n2)CNCC3)c1 [Example 21, N-(2-(1H-indol-3-yl)ethyl)-2-(5-fluoropyridin-3-yl)-5,6,7,8-tetrahydropyrido[4,3-d]pyrimidin-4-amine] | 6.40 | 0.02 | 
Clc1cncc(-c2nc3c(c(NCCc4c[nH]c5ccccc45)n2)CCNC3)c1 [Example 22, N-(2-(1H-indol-3-yl)ethyl)-2-(5-chloropyridin-3-yl)-5,6,7,8-tetrahydropyrido[3,4-d]pyrimidin-4-amine] |  | 0.01 | 0.316
N#Cc1cncc(-c2nc3c(c(NCCc4c[nH]c5ccccc45)n2)CCNC3)c1 [Example 23, 5-(4-((2-(1H-indol-3-yl)ethyl)amino)-5,6,7,8-tetrahydropyrido[3,4-d]pyrimidin-2-yl)nicotinonitrile] | 6.70 | 0.01 | 
Fc1cncc(-c2nc3c(c(NCCc4c[nH]c5ccccc45)n2)CNC3)c1 [Example 24, N-(2-(1H-indol-3-yl)ethyl)-2-(5-fluoropyridin-3-yl)-6,7-dihydro-5H-pyrrolo[3,4-d]pyrimidin-4-amine] | 6.60 | 0.0126 | 
CS(=O)(=O)N1Cc2nc(-c3cncc(F)c3)nc(NCCc3c[nH]c4ccccc34)c2C1 [Example 25, N-(2-(1H-indol-3-yl)ethyl)-2-(5-fluoropyridin-3-yl)-6-(methylsulfonyl)-6,7-dihydro-5H-pyrrolo[3,4-d]pyrimidin-4-amine] | 6.20 | 0.00501 | 

From patent US12221439B2, “Tetrahydropyridopyrimidine derivatives as AhR modulators” (JAGUAHR THERAPEUTICS PTE LTD, priority 2018, dated 2025)
